From ChEMBL document CHEMBL1138245, “Discovery of N1-(6-chloroimidazo[2,1-b][1,3]thiazole-5-sulfonyl)tryptamine as a potent, selective, and orally active 5-HT(6) receptor agonist” (J Med Chem, 2007)
pEC50, pKi: −log10 of the molar value.

How the values were obtained:
[1] = biological target: T1, 5-hydroxytryptamine receptor 6 (Homo sapiens, UniProt P50406); test: Displacement of [3H]LSD from human 5HT6 receptor expressed in HeLa cells; type: cell-based
[2] = biological target: T1, 5-hydroxytryptamine receptor 6; test: Agonist activity at human 5HT6 receptor expressed in HeLa cells assessed as cAMP production; type: functional, cell-based

T1 sequence (P50406 whole entry): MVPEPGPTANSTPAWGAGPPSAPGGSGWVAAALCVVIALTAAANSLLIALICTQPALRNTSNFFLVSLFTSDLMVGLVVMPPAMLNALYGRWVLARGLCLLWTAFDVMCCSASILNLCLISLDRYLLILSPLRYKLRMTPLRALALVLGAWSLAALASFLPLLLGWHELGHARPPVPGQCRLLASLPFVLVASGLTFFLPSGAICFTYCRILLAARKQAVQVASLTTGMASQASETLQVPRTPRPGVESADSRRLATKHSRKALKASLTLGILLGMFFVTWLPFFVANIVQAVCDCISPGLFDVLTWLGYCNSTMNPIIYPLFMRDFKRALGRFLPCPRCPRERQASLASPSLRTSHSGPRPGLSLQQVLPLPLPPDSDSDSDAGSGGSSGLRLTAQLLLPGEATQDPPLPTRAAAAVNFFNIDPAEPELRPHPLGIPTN

| SMILES | pKi [1] | pEC50 [2] | Emax [2] [%] |
| --- | --- | --- | --- |
| NCCc1cn(S(=O)(=O)c2ccccc2Br)c2ccccc12 | 7.96 | 6.83 | 97.5 |
| Cc1ccc(S(=O)(=O)n2cc(CCN)c3ccccc32)cc1 | 8.10 | 6.72 | 87.5 |
